{"source": "BindingDB's records for doi:10.1021/jm000956k", "about": "(Glaxowellcome, 2001)", "key": {"[1]": {"target": "5-hydroxytryptamine receptor 2A (Oryctolagus cuniculus)", "test": "Binding affinity against rabbit aorta 5-HT2A receptor"}, "[2]": {"target": "5-hydroxytryptamine receptor 1D (Bos taurus)", "test": "Binding affinity against calf caudate 5-hydroxytryptamine 1D receptor"}, "[3]": {"target": "5-hydroxytryptamine receptor 2C (Cavia porcellus)", "test": "Binding affinity against guinea pig cortex 5-HT2C receptor in the presence of [3H]mesulergine"}}, "data": [{"molecule": "CN(C)[C@H]1C[C@H](c2c[nH]c3ccc(CC4COC(=O)N4)cc32)C1", "note": "(stereo partly drawn)", "values": [{"measurement": "IC50", "setting": "[1]", "value": "> 10", "unit": "µM"}, {"measurement": "IC50", "setting": "[2]", "value": 0.089, "unit": "µM"}, {"measurement": "IC50", "setting": "[3]", "value": "> 10", "unit": "µM"}]}]}
